As usually defined, the IC50 is the concentration that gives 50% inhibition.

For experiment [1], the system named is leukocyte infiltration into dorsal air pouches. The experiment can be described thus: Murine air pouch model, leukocyte infiltration. It is filed as in vivo, C57BL/6 mice. The following applies: co-injected into the air pouch; phenylephrine 10-100 mg/kg, phentolamine 5-50 mg/kg; 24 h; FIG. 9B-D.
Description: All procedures were performed according to the National Institutes of Health Guidelines for Use of Laboratory Animals and were approved by the Institutional Animal Care and Use Committee of the University of South Florida (IS00010570). Male and female C57BL/6 mice (20-25 g) were obtained from Envigo (Indianapolis, IN). Six days prior to the start of the experiments, mice were anesthetized with 1.7% sevoflurane, the dorsal cervical/thoracic region was shaved, disinfected with 70% ethanol and 3 mL of sterile air were injected subcutaneously (s.c.) to create an air pouch. […] 5 ml ice cold lavage fluid was injected into each air pouch using a syringe with a 23-G, 1-inch needle, the air pouch was gently massaged for 60 seconds, the lavage fluid was harvested using the same syringe and needle and the recovered volume was recorded. […] Erythrocytes in the cell pellets were lysed with Invitrogen 1× RBC lysis buffer and the harvested air pouch cells analyzed by flow cytometry.
Harvested air pouch cells were incubated with APC-conjugated anti-mouse CD45 or APC-conjugated immunoglobulin G 2B (IgG2B; isotype control) for 145 min in the dark at room temperature. […] Cells were then washed again, resuspended in PBS, and the cell-associated light scatter and fluorescence were determined with a LSRII instrument (Becton Dickinson). […]
In experiment [2] the target is T1, CCR2 (Homo sapiens, UniProt P41597). Description: Chemotaxis assay, THP-1 cells toward CCL2 (CCR2-mediated). Format: cell-based. Also noted: host or cells: THP-1. The conditions noted are these: CCL2 10 nM, mean±SE, read-out: IC50 for inhibition of CCR2-mediated chemotaxis. As for the experimental part: Cell migration was measured employing the Neuroprobe (Gaithersburg, MD, USA) ChemoTx® Disposable Chemotaxis System. A 96-well Boyden-chamber (30 μL/well, 8 μm pores, 1×10^5 pores/cm^2 pore density) was selected for all chemotaxis experiments. Bottom wells of the Boyden-chamber were loaded with 30 μL of test substances at various concentrations. Top wells of the membrane were loaded with 25 μL of THP-1 cells, THP-1_ADRA1B^KO, wild type THP-1 cells after clonal expansion (=control for THP-1_ADRA1B^KO) or freshly isolated monocytes (200 cells/μL). THP-1 cells were suspended in depleted RPMI1640 (0.5% HyClone™ fetal bovine serum, Sigma); Freshly isolated monocytes were suspended in RPMI1640 (0.5% human platelet poor plasma, Sigma). After 3 hours, transmigrated cells were counted utilizing the Cytation 1 plate reader (BioTek) by direct imaging in high contrast bright field (4×) and post-imaging particle analyses with Gen5 (v3.05) Imaging & Microscopy Software (BioTek). The chemotactic index (CI) was calculated as the ratio of cells that transmigrated in the presence versus the absence of the test solutions.
T1 sequence (P41597 whole entry): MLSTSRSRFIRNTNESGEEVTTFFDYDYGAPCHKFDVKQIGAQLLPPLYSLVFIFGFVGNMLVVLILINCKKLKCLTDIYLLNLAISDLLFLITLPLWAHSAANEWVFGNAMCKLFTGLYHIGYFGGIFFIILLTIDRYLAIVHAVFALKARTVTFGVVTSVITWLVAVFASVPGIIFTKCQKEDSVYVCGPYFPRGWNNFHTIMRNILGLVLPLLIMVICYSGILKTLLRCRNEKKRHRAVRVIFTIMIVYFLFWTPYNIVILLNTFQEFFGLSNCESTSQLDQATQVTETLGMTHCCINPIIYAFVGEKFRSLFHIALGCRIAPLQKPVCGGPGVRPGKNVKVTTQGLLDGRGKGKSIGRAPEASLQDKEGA

For experiment [3], the system named is heteromeric complexes between α1B/D-ARs and CCR1, CCR2, CXCR4. Description: Proximity ligation assay, receptor-receptor interactions on THP-1 cells. The following applies: 10 μM, 30 min at 37° C.; FIG. 8.
The test system of experiment [4] is THP-1 cells (CCR2-mediated Gαi signaling). Description: Cyclic AMP measurement in forskolin-stimulated THP-1 cells. Format: cell-based, human. The following applies: forskolin-stimulated THP-1 cells; 1 μM PE, 1 μM PT or 100 nM NE; 15 min at 37° C.; FIG. 4G, 4H. As to the method:
Cyclic AMP amounts were measured using the cAMP complete enzyme immunoassay kit, acetylated format (Enzo Life Sciences). 4×10^5 cells were incubated with forskolin/isobutylmethylxanthine (10 μM/0.5 mM final concentrations) in 0.1% BSA/10 mM Hepes-buffered RPMI and treated with CCL2 in the presence or absence of 1 μM PE, 1 μM PT or 100 nM NE at 37° C. for 15 min. The cells were lysed by incubating with 0.1 M HCl at room temperature for 20 min. The cAMP amounts in the lysate supernatant were measured following the manufacturer's instructions.

In experiment [5] the target is T2, heteromerization between α1b-AR and CCR2 (Homo sapiens, UniProt P35368).
T2 sequence (P35368 1-520): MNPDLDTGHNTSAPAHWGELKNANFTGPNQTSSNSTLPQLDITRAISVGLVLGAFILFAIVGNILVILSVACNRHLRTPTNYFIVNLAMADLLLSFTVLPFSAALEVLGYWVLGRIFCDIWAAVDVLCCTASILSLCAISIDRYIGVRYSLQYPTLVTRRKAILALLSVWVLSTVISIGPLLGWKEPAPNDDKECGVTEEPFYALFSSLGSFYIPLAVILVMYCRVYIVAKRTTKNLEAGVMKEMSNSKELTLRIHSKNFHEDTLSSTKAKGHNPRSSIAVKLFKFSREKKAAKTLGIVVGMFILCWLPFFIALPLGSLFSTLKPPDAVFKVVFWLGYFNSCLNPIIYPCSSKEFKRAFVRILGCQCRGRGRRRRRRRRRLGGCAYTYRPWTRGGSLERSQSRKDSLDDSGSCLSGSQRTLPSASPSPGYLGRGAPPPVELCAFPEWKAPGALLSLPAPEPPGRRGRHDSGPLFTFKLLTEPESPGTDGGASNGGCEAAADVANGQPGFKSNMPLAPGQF
Description: Saturation BRET to assess receptor heterodimerization (α1b-AR-RlucII / CCR2-EYFP, HEK293T). The following applies: 10 μM ligand, 5 min; for BRETmax: FIG. 3B; for BRET50 values: FIG. 3C. On the technique in general: In BRET a luciferase serves as donor, and the signal depends on an acceptor being close.

The target in experiment [6] is T1, CCR2. Also noted: host or cells: THP-1. The following applies: previous finding (Enten, 2022); cited from earlier work.
Another experiment deals with CCR2:α1b-AR heteromers (Homo sapiens, UniProt P35368+P41597). The experiment can be described thus: PRESTO-Tango β-arrestin recruitment assay, HTLA cells with CCR2-Tango plus α1b-AR. It is filed as cell-based. Also on record: Tango module of the TANGO vector (C); expressed in transfected cells; host or cells: HTLA. As for the experimental part: (§1) The assays were performed as described previously (Albee, 2017; Gao, 2022; Albee, 2018; Eby, 2017; Cheng, 2017). HTLA cells were seeded in a 6-well plate and transfected with 750 ng FLAG-CCR2-Tango together with 750 ng pcDNA3.1 or HA-α1b-AR using TransIT-2020 Transfection Reagent. The next day, cells (75,000 cells/well) were plated onto poly-L-Lysine pre-coated 96-well plates and allowed to attach to the plate surface for at least 4 hours prior to treatment. Cells were treated with receptor ligands at the concentrations indicated in the figure legends for 2 h and then replaced with fresh full medium and incubated overnight at 37° C., 5% CO2 in a humidified environment. The following morning, medium was replaced with a 100 μL 1:10 mixture of Bright-Glo (Promega) and PBS. Plates were then incubated at room temperature for 10 min before measuring luminescence on a Biotek Synergy II plate reader. Relative luminescence units (RLU) are expressed as fold changes of RLU vs unstimulated cells.
CCR2:α1b-AR heteromers, sequence (P41597 whole entry, one chain of several): as the sequence (P41597 whole entry) above

Experiment [7] concerns the target T1, CCR2. Description: PRESTO-Tango β-arrestin recruitment assay, HTLA cells with CCR2-Tango plus pcDNA3. The conditions noted are these: absence of α1b-AR; FIG. 5A. It is filed as cell-based. As to the method: as §1
Background: Activated receptors often draw arrestin, which recruitment assays turn into a signal.

On to `Cc1ccc(N(CC2=NCCN2)c2cccc(O)c2)cc1` [phentolamine], for which the “leukocyte infiltration induced by LPS, CCL2 or CXCL12” value in experiment [1] is “inhibited in a dose-dependent manner”. The half-inhibitory concentration (IC50) at CCR2 [2] worked out at 2.7 ± 3.5 nM. Besides, the “heteromeric complexes between α1B/D-ARs and their chemokine heteromerization partners (PLA signals)” value in experiment [3] was “reduced”. The “effect on the effects of CCL2 on cAMP production” value in experiment [4] was “inhibited the effects of CCL2 on cAMP production”. In addition, in experiment [5], the BRETmax entry is on record as “did not affect” and the BRET50 values entry was “significantly increased”. Besides, the “binding affinity of CCR2 for CCL2” value at CCR2 [6] is “did not affect”. At CCR2:α1b-AR heteromers (1 μM PT, FIG. 5B), the “effect on CCL2-induced β-arrestin recruitment to CCR2” value was “did not affect”. For the same compound, the “β-arrestin recruitment to CCR2-Tango by the ligand” value at CCR2:α1b-AR heteromers (cells co-transfected with CCR2-Tango plus α1b-AR, FIG. 5A) is “had no effect”. On CCR2 [7], the “β-arrestin recruitment to CCR2-Tango by the ligand” value is listed as “did not induce”.
For the compound `CNC[C@H](O)c1cccc(O)c1` [phenylephrine], in experiment [1], the “leukocyte infiltration induced by LPS, CCL2 or CXCL12” value is listed as “inhibited in a dose-dependent manner”. Further, the IC50 on CCR2 [2] was determined as 7.5 ± 7.7 nM. Further, the “heteromeric complexes between α1B/D-ARs and their chemokine heteromerization partners (PLA signals)” value in experiment [3] is given as “reduced”. The “effect on the effects of CCL2 on cAMP production” value in experiment [4] is reported as “inhibited the effects of CCL2 on cAMP production”. Moreover, in experiment [5], the BRETmax entry is listed as “did not affect” and the BRET50 values entry is given as “significantly increased”. In addition, the “binding affinity of CCR2 for CCL2” value at CCR2 [6] was “did not affect”. In addition, on CCR2:α1b-AR heteromers (agonist alone), the “efficacy to induce β-arrestin recruitment to CCR2” value is given as 2.4±0.14 fold change RLU. For the same compound, at CCR2:α1b-AR heteromers (co-stimulated with CCL2 and 1 μM PE vs CCL2 alone), the “increase of the efficacy of CCL2 to recruit β-arrestin to CCR2” value is recorded as 3 fold. The “efficacy of CCL2 to recruit β-arrestin to CCR2 in the presence of the ligand” value at CCR2:α1b-AR heteromers (co-stimulated with CCL2 and 1 μM PE, FIG. 5B) worked out at 130±12 fold change RLU. The “β-arrestin recruitment to CCR2-Tango by the ligand” value at CCR2 [7] is “did not induce”.

Values taken from patent US20250213647A1, “CHEMOKINE RECEPTORS AND ALPHA1 ADRENERGIC RECEPTORS/VASOPRESSIN RECEPTORS 1A HETEROMERS AS DRUG TARGETS FOR DISEASE” (UNIVERSITY OF SOUTH FLORIDA, priority 2022, published 2025).
